Earlier results, collected in US7223414B1, “Silica-calcium phosphate bioactive composite for improved synthetic graft resorbability and tissue regeneration” (priority 2002, dated 2007).
Structures can show the parent of a compound that is named as a salt.

Tested on: Staphylococcus aureus

CN[C@H](CC(C)C)C(=O)N[C@H]1C(=O)N[C@@H](CC(N)=O)C(=O)N[C@H]2C(=O)N[C@H]3C(=O)N[C@H](C(=O)N[C@H](C(=O)O)c4cc(O)cc(O)c4-c4cc3ccc4O)[C@H](O)c3ccc(c(Cl)c3)Oc3cc2cc(c3O[C@@H]2O[C@H](CO)[C@@H](O)[C@H](O)[C@H]2O[C@H]2C[C@](C)(N)[C@H](O)[C@H](C)O2)Oc2ccc(cc2Cl)[C@H]1O [vancomycin hydrochloride, Vancomycin hydrochloride]
breakpoint sensitivity: 5 mg/L | minimum bactericidal concentrations: 2.34 mg/L | minimum inhibitory concentration: 1.18 mg/L
